Values after ≈ are worked out from the molar mass of the structure shown. Counter-ions that a name gives are not always drawn.
Columns and labels:
[1] = MIC stated in the synthesis examples; assay type: cell-based; conditions: strain and medium not given
[2] = test system: Candida albicans ATCC 26278; assay: minimum inhibitory concentration for elected strain; assay type: cell-based
Procedure: The in vitro activity has been evaluated by the method of serial dilutions in parallel on solid YNB medium and on YNB w/o+AN medium, where the abbreviation AN means 200 mg of sodium glutamate, 10 mg of L-histidine, 20 mg of DL-methionine, 20 mg DL-tryptophane, 10 g of glucose and 15 g of agar-agar per 1 liter of the YNB medium. The application of the medium modified in such a manner was made necessary by the known phenomenon of lower biological activity in the media containing ammonium sulphate as a source of nitrogen.

Row | Compound | MIC [1] [µg/mL] | minimum inhibitory concentration, MIC [2] [µg/mL]
1 | CCC[C@H](NC(=O)[C@@H](N)CCSC)C(=O)N[C@@H](CNC(=O)/C=C/C(=O)OC)C(=O)O [XVI, N^2 -L-methionyl-L-norvalyl, N^3-4-methoxyfumaryl-L-2,3-diaminopropanoic hydrochloride] | 0.8 | 0.4
2 | COC(=O)/C=C/C(=O)NC[C@H](N)C(=O)N[C@@H](CCSC)C(=O)N[C@@H](C)C(=O)O [Example I, N^3-4-methoxyfumaryl-L-2,3-diaminopropanoyl-L-methionyl-L-aniline] | 0.1 (≈ 0.239 µM) | 
3 | COC(=O)/C=C/C(=O)NC[C@H](NC(=O)[C@@H](N)CCSC)C(=O)N[C@@H](CCSC)C(=O)O [VIII, N^2 -L-methionyl, n^3-4-methoxyfumaryl-L-2,3-diaminopropanoyl-L-methonine hydrochloride] | 0.8 | 
4 | CCC[C@H](NC(=O)[C@@H](N)CCCCN)C(=O)N[C@@H](CNC(=O)/C=C/C(=O)OC)C(=O)O [XXII, N^2 --L-lysyl-L-norvalyl-N^3-4-methoxyfumaryl-L-2,3-diaminopropanoic dihydrochloride] |  | 0.02
